The test system of one test is Rats. Put plainly: Rat social interaction test (withdrawal from chronic treatment with a drug or substance of abuse). It is filed as in vivo. The settings on record: rats withdrawn after diazepam 10mg/kg i.p. b.d. for 14 days; test compound 1µg/kg i.p. once daily immediately after withdrawal. How it is done:
The method was based on that described by S. E. File, J. Neurosci. Methods, 1980, 2, 219-238. Rats were treated chronically with diazepam (10mg/kg i.p. b.d.) for 14 days and then withdrawn.

The next test relates to Alcohol-preferring rats. The experiment in a line: Alcohol consumption test in rats (computerised drinkometer). It is filed as in vivo, Male Wistar rats. Conditions: 6% v/v ethanol, 0.1µg/kg i.p. once daily for 7 days, 1h prior to the 12h dark cycle. How it is done:
Male Wistar rats, initially weighing 200g, were housed individually in suspended stainless steel cages. The animal colony room was controlled for temperature (22-24°C) and humidity (55%) and was maintained on a 12-hour dark-light cycle which began at 1900 hours. Rats were allowed free access to food, water and ethanol solutions. Water and ethanol solutions were presented in two custom-designed drinkometer tubes mounted on the front of each rat cage. To avoid bias generated by a position preference, the tube positions were randomly reversed on each ethanol presentation. Water and ethanol consumption were continuously monitored daily during the drinking cycle (1900 to 0700h). Minute-to-minute ethanol and water volume consumptions were recorded using a computerised drinkometer system. This system consists of pressure transducers embedded in the base of the drinking tube and accurately detects significant volume changes as small as 0.1ml. Ethanol drinking solutions were prepared by diluting 95% ethyl alcohol with distilled water to form 6% v/v concentrations. From the minute-to-minute volume recordings, the following variables were calculated : total ethanol volume; total ethanol preference; weight-adjusted ethanol volume and total minutes of ethanol drinking activity. […]

The source of these data is EP0357416A2, “Use of serotonin antagonists in the treatment of drug addiction” (GLAXO GROUP LIMITED, priority 1988, dated 1990).

The structures appear in SMILES notation.

Turning to `Cc1[nH]cnc1CN1CCc2c(c3ccccc3n2C)C1=O.Cl` [test compound, 2,3,4,5-tetrahydro-5-methyl-2-[(5-methyl-1H-imidazol-4-yl)methyl]-1H-pyrido[4,3-b]indol-1-one hydrochloride], the “withdrawal response (reduced social interaction)” value in the test on Rats is “the withdrawal response was not observed”. Besides, in the test on Alcohol-preferring rats, the ethanol drinking time entry was “reduced” and the ethanol intake entry is reported as “reduced”.
